Test results as given in publication doi:10.1101/2020.06.11.145995v1 (biorxiv, 2020).

What follows are molecules tested against T1, C202S (C218S) mutant MKK7 kinase domain (Homo sapiens, UniProt O14733, C202S). Settings: binder.
T1 sequence (O14733 1-419 C202S): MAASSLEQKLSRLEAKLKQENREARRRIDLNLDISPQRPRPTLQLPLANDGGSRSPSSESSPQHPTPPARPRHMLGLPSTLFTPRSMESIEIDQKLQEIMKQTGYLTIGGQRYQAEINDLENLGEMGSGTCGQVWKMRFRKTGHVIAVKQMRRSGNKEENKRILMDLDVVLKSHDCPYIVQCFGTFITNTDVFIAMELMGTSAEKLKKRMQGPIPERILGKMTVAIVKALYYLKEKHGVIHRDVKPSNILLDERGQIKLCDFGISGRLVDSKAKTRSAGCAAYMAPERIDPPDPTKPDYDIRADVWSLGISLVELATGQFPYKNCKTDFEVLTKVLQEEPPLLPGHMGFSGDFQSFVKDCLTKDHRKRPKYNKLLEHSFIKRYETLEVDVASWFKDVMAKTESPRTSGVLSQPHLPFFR

Compound | ΔTm C202S
O=C1Nc2ccccc2/C1=C/c1c[nH]cn1 [K00007] | 2.3 °C
Brc1c(Br)c(Br)c2[nH]nnc2c1Br [K00040, TBB (218697)] | 3.3 °C

The remaining lines, values ahead:

ΔTm C202S | Compound
4.9 °C | Cc1cc(Nc2cc(C3CC3)[nH]n2)nc(Nc2ccc(CC#N)cc2)n1 [ASC69]
0.6 °C | O=C1NC(=O)C(=Cc2ccc3c(c2)OC(F)(F)O3)S1 [K00828, PI3Kg inhib II (528108)]
3.5 °C | CCN1CCN(Cc2ccc(NC(=O)c3ccc(C)c(C=Cc4cnc5[nH]ccc5c4OC)c3)cc2C(F)(F)F)CC1 [K03427, HG-6-64-01]
